The results in this text go back to PubChem BioAssay (NCI).

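96-well plates; 48 h exposure; 5 concentrations. Endpoints by linear interpolation between flanking doses. Not reached: highest tested concentration assigned. The concentration for full growth arrest is given as TGI.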

Holding throughout (assay): inhibition of tumour cell growth, NCI panel, 48 h
The test system of assay [1] is LOX IMVI melanoma.
Assay [2] deals with 786-0 renal.
The test system of assay [3] is SK-MEL-5 melanoma.
The subject of assay [4] is HT29 colon.
Assay [5] concerns SR leukemia.
Assay [6] relates to HL-60(TB) leukemia.
Assay [7] relates to UACC-257 melanoma.
The subject of assay [8] is EKVX NSCLC.
Assay [9] relates to RPMI-8226 leukemia.
Assay [10] has as its system HOP-62 NSCLC.
For assay [11], the system named is CCRF-CEM leukemia.
For assay [12], the system named is KM12 colon.
The test system of assay [13] is MDA-MB-435.
Assay [14] concerns SN12C renal.
Assay [15] has as its system NCI-H460 lung.
Assay [16] has as its system SK-MEL-28 melanoma.
Assay [17] concerns HCC-2998 colon.
The subject of assay [18] is SNB-75 CNS.
The subject of assay [19] is MCF7 breast.

Regarding `N#CC1=C(N2CCCC2)NC(=O)CC1=O`, the TGI in assay [1], in [2], in assay [3], in [4], in assay [5] and in assay [6] was above 100 µM each time. In addition, the TGI in assay [7], in assay [8], in assay [9], in assay [10], in assay [11] and in assay [12] was above 100 µM each time. Further, the TGI in assay [13], in assay [14], in assay [15], in assay [16] and in assay [17] was above 100 µM each time.
Take `Cc1ccc2nc3ccccc3c(C3C4C(=O)N(c5ccc(Br)cc5Cl)C(=O)C4ON3C(C(N)=O)c3ccccc3)c2c1` (stereo not given): the TGI in assay [1], in assay [2], in assay [3], in assay [4], in [5] and in assay [6] was above 25 µM in each case. Moreover, the TGI in [7] is above 25 µM; in [18] it was above 25 µM; in assay [8] it was 15.5 µM; in assay [10], above 25 µM; in assay [11] it was above 25 µM; in assay [12], above 25 µM. The TGI is above 25 µM in assay [13]; above 25 µM in assay [19]; 23.2 µM in assay [14]; above 25 µM in assay [15]; above 25 µM in [16].
As for `CC(=O)OC1CC2OC(Cc3ccccc32)O1` (stereo not given), the TGI in [1], in [2], in [4], in assay [5], in [6] and in assay [7] was above 100 µM throughout. Also, the TGI in assay [18], in assay [8], in assay [9], in [10], in [11] and in [12] was above 100 µM throughout. Moreover, the TGI in assay [14], in assay [15], in [16] and in assay [17] was above 100 µM in each case.
For the compound `CN(C)/N=C(\CCN1CCCC1)CC(c1ccccc1)c1c(O)c2ccccc2oc1=O` (stereo not given), the TGI was above 100 µM in assay [1]; above 100 µM in assay [2]; above 100 µM in [4]; 72.9 µM in assay [6]; above 100 µM in assay [7]; above 100 µM in assay [18]. The TGI in [8], in assay [9], in [10], in [11], in [14] and in [16] was above 100 µM throughout. In addition, the TGI in assay [17] was above 100 µM.
Regarding `CC1=CC(=O)NP(=O)(Oc2ccc(C)cc2)N1` (stereo not given), the TGI in assay [1], in [2], in assay [3], in assay [4], in [5] and in assay [6] was above 100 µM each time. Also, the TGI in assay [7], in assay [18], in assay [8], in assay [9], in assay [10] and in assay [11] was above 100 µM throughout. For the same compound, the TGI in assay [12], in assay [14], in assay [15] and in assay [16] was above 100 µM each time.
With `O=[N+]([O-])C(C(Cl)=C(Cl)Cl)=C(N1CCOCC1)N1CCOCC1`, the TGI in assay [1], in assay [2], in assay [3], in assay [4], in assay [6] and in assay [7] was above 100 µM each time. Also, the TGI in assay [18], in assay [8], in assay [9], in assay [10], in assay [11] and in assay [12] was above 100 µM throughout. Moreover, the TGI in [13], in assay [14], in assay [16] and in assay [17] was above 100 µM throughout.
Consider `Cc1[nH]c(=O)[nH]c(=S)c1C(=O)NC(C)(CO)CO`, for which the TGI in assay [1], in [2], in [3], in assay [4], in assay [6] and in [7] was above 100 µM throughout. Also, the TGI in assay [18], in [8], in assay [10], in [11], in assay [12] and in assay [13] was above 100 µM each time. Also, the TGI in assay [19], in assay [14], in [15], in [16] and in assay [17] was above 100 µM each time.
In the case of `CC1=CC(=O)NCCN1C`, the TGI in assay [1], in assay [2], in [3], in assay [4], in [5] and in [6] was above 100 µM in each case. For the same compound, the TGI in [7], in assay [18], in assay [8], in [10], in assay [11] and in [12] was above 100 µM throughout. The TGI in assay [14], in assay [15], in assay [16] and in assay [17] was above 100 µM each time.
Consider `O=C1c2ccccc2S[C@@H](O)[C@@H]2CCCN12`, for which the TGI in [1], in assay [2], in assay [3], in [5], in assay [6] and in assay [7] was above 100 µM each time. Moreover, the TGI in [8], in assay [9], in [10], in assay [11], in [12] and in assay [14] was above 100 µM throughout. Moreover, the TGI in [15], in assay [16] and in [17] was above 100 µM throughout.
As to `CCOC(=O)Cn1sc2ncc([N+](=O)[O-])cc2c1=O`, the TGI in assay [1] is 26.4 µM; in [2], 30.6 µM; in [3], 85.3 µM; in assay [4], 29.8 µM; in assay [6], above 100 µM; in assay [7], 31.6 µM. For the same compound, the TGI was 89.1 µM in assay [18]; above 100 µM in assay [8]; above 100 µM in assay [9]; 30 µM in assay [10]; 5.41 µM in assay [11]; 34.3 µM in assay [12]. In addition, the TGI in [13] turned out to be 30 µM; in assay [19] it was 35.3 µM; in [14], 31.6 µM; in [15], 34.4 µM; in [16], 28.6 µM; in [17], 32.2 µM.
On to `COc1cc2c(c(OC)c1OC)-c1ccc(SC)c(=O)cc1C(CC(=O)Oc1ccc([N+](=O)[O-])cc1)C2` (stereo not given), for which the TGI is 20.2 µM in assay [1]; above 37.2 µM in assay [2]; 13.9 µM in assay [3]; 0.099 µM in [4]; above 38 µM in assay [5]; above 38.2 µM in assay [6]. Besides, the TGI in [7] was above 49.1 µM; in [18], 0.68 µM; in [8], above 100 µM; in assay [9], above 63 µM; in assay [10], above 100 µM; in [11], above 100 µM. The TGI in assay [12] is 0.489 µM; in assay [14] it was above 43.1 µM; in assay [15] it was 5.78 µM; in assay [16], above 56.6 µM; in [17], 2.13 µM.
With `O=P(c1ccccc1)(c1ccccc1)C(NCc1ccccc1)c1ccc(F)cc1` (stereo not given), the TGI in [1] is 28 µM; in assay [2], 34.8 µM; in assay [3], 29.6 µM; in assay [4], 26.5 µM; in assay [5] it was 49.5 µM; in assay [6] it was above 100 µM. Besides, the TGI was 34.9 µM in [7]; 48.3 µM in [18]; 25.4 µM in [8]; above 100 µM in assay [9]; 42.6 µM in assay [10]; 48.6 µM in [11]. For the same compound, the TGI in assay [12] amounted to 29.1 µM; in assay [13] it was 23 µM; in [14] it was 36.6 µM; in assay [15] it was 26.7 µM; in assay [16], 28.9 µM; in assay [17], 29.6 µM.
For `CCOC(=O)CC(NC(=O)c1nc[nH]c1[N+](=O)[O-])C(=O)OCC` (stereo not given), the TGI in [1], in [2], in assay [3], in [4], in assay [5] and in assay [7] was above 100 µM each time. Further, the TGI in assay [18], in assay [8], in assay [9], in assay [10], in [11] and in [12] was above 100 µM each time. In addition, the TGI in [14], in assay [15], in assay [16] and in assay [17] was above 100 µM in each case.
`N#[O+].O=S(=O)([O-])[O-].[NH2-].[NH2-].[NH2-].[NH2-].[NH2-].[Ru+5]`: the TGI in assay [1], in [2], in [3], in assay [4], in [5] and in assay [6] was above 100 µM throughout. Moreover, the TGI in assay [7], in [18], in [8], in assay [11], in [12] and in assay [14] was above 100 µM each time. The TGI in assay [15], in assay [16] and in assay [17] was above 100 µM throughout.
As for `CC(=O)NCc1nc(C#N)c(N)o1`, the TGI in [1], in assay [2], in [4], in assay [6], in assay [7] and in [18] was above 100 µM in each case. The TGI in assay [8], in assay [9], in assay [10], in assay [11], in assay [12] and in assay [13] was above 100 µM each time. Moreover, the TGI in [19], in assay [14], in assay [15], in assay [16] and in assay [17] was above 100 µM throughout.
In the case of `S=C1Cc2c([nH]c3ccccc23)-c2ccccc2N1`, the TGI in assay [1], in assay [2], in [3], in [4], in assay [5] and in [6] was above 100 µM throughout. The TGI in [7] is above 100 µM; in [18], 66.7 µM; in assay [8] it was above 100 µM; in assay [9], above 100 µM; in assay [10], 62.3 µM; in assay [11], above 100 µM. In addition, the TGI in assay [12], in [13], in [19], in assay [14], in assay [15] and in [16] was above 100 µM each time.
Consider `CC1CN=C(Nc2ccc(S(N)(=O)=O)cc2)S1` (stereo not given), for which the TGI is above 10 µM in assay [1]; above 100 µM in assay [2]; above 100 µM in [3]; above 100 µM in assay [4]; above 100 µM in assay [5]; above 100 µM in assay [6]. Moreover, the TGI in assay [7], in assay [18], in assay [8], in assay [9], in assay [10] and in assay [11] was above 100 µM in each case. The TGI in assay [12], in [19], in [14], in [15], in assay [16] and in assay [17] was above 100 µM in each case.
